Values after ≈ are worked out from the molar mass of the structure shown. Active and inactive are the calls of the source. No cut-off for these calls is given here.
What was measured:
[1] = system: Staphylococcus epidermidis; assay: Antibacterial activity against Staphylococcus epidermidis clinical isolate after 16 to 18 hrs by broth microdilution method; type: functional
[2] = system: Escherichia coli; assay: Ratio of MIC for ciprofloxacin-resistant Escherichia coli JW5503 harboring GyrA Asp87Gly mutant to MIC for Escherichia coli JW5503; type: functional
[3] = system: Escherichia coli; assay: Ratio of MIC for gyramide-resistant Escherichia coli JW5503 harboring GyrA Pro35Thr mutant to MIC for Escherichia coli JW5503; type: functional
[4] = system: Escherichia coli; assay: Antibacterial activity against Escherichia coli JW5503 overexpressing gyrA in absence of IPTG induction after 16 hrs by broth microdilution method; type: functional; details: JW5503, 16 h
[5] = system: Escherichia coli; assay: Antibacterial activity against gyramide-resistant Escherichia coli JW5503 harboring GyrB Thr508Met mutant after 16 to 18 hrs by broth microdilution method; type: functional
[6] = system: Enterococcus faecalis; assay: Antibacterial activity against Enterococcus faecalis after 16 to 18 hrs by broth microdilution method; type: functional
[7] = system: Escherichia coli; assay: Antibacterial activity against Escherichia coli JW5503 transfected with empty vector in absence of IPTG induction after 16 hrs by broth microdilution method; type: functional; details: JW5503, 16 h
[8] = system: Klebsiella aerogenes; assay: Antibacterial activity against Enterobacter aerogenes clinical isolate after 16 to 18 hrs by broth microdilution method; type: functional
[9] = system: Escherichia coli; assay: Antibacterial activity against Escherichia coli HB101 after 16 to 18 hrs in presence of PAbetaN by broth microdilution method; type: functional
[10] = system: Staphylococcus aureus; assay: Antibacterial activity against Staphylococcus aureus subsp. aureus clinical isolate after 16 to 18 hrs by broth microdilution method; type: functional
[11] = system: Staphylococcus saprophyticus; assay: Antibacterial activity against Staphylococcus saprophyticus clinical isolate after 16 to 18 hrs by broth microdilution method; type: functional
[12] = system: Morganella morganii; assay: Antibacterial activity against Morganella morganii clinical isolate after 16 to 18 hrs by broth microdilution method; type: functional
[13] = system: Escherichia coli; assay: Ratio of MIC for ciprofloxacin-resistant Escherichia coli JW5503 harboring GyrB Ser464Phe mutant to MIC for Escherichia coli JW5503; type: functional
[14] = system: Escherichia coli; assay: Antibacterial activity against Escherichia coli JW5503 overexpressing gyrA in presence of IPTG induction after 16 hrs by broth microdilution method; type: functional; details: JW5503, 16 h
[15] = system: Escherichia coli; assay: Antibacterial activity against gyramide-resistant Escherichia coli JW5503 harboring GyrA Pro35Thr mutant after 16 to 18 hrs by broth microdilution method; type: functional
[16] = system: Escherichia coli; assay: Ratio of MIC for gyramide-resistant Escherichia coli JW5503 harboring GyrA Phe96Leu mutant to MIC for Escherichia coli JW5503; type: functional
[17] = system: Acinetobacter baumannii; assay: Antibacterial activity against Acinetobacter baumannii clinical isolate after 16 to 18 hrs by broth microdilution method; type: functional
[18] = system: Escherichia coli; assay: Antibacterial activity against ciprofloxacin-resistant Escherichia coli JW5503 harboring GyrA Asp87Gly mutant after 16 to 18 hrs by broth microdilution method; type: functional
[19] = system: Edwardsiella tarda; assay: Antibacterial activity against Edwardsiella tarda clinical isolate after 16 to 18 hrs by broth microdilution method; type: functional
[20] = system: Pseudomonas aeruginosa; assay: Antibacterial activity against Pseudomonas aeruginosa after 16 to 18 hrs by broth microdilution method; type: functional
[21] = system: Escherichia coli; assay: Antibacterial activity against ciprofloxacin-resistant Escherichia coli JW5503 harboring GyrA Ser83Leu mutant after 16 to 18 hrs by broth microdilution method; type: functional
[22] = system: Enterococcus faecium; assay: Antibacterial activity against Enterococcus faecium after 16 to 18 hrs by broth microdilution method; type: functional
[23] = system: Escherichia coli; assay: Antibacterial activity against gyramide-resistant Escherichia coli JW5503 harboring GyrA Phe96Leu mutant after 16 to 18 hrs by broth microdilution method; type: functional
[24] = system: Streptococcus agalactiae; assay: Antibacterial activity against Streptococcus agalactiae after 16 to 18 hrs by broth microdilution method; type: functional
[25] = system: Escherichia coli; assay: Ratio of MIC for gyramide-resistant Escherichia coli JW5503 harboring GyrB Ser464Phe mutant to MIC for Escherichia coli JW5503; type: functional
[26] = system: Escherichia coli; assay: Antibacterial activity against Escherichia coli JW5503 overexpressing gyrA/gyrB in absence of IPTG induction after 16 hrs by broth microdilution method; type: functional; details: JW5503, 16 h
[27] = system: Escherichia coli; assay: Ratio of MIC for Escherichia coli MC4100 to MIC for Escherichia coli BAS849; type: functional
[28] = molecular target: DNA gyrase (Escherichia coli) (UniProt P0AES6+P0AES4); assay: Inhibition of Escherichia coli DNA gyrase ATPase activity up to 100 uM using DNA as substrate after 60 mins; type: protein-complex assay
[29] = system: Salmonella typhimurium; assay: Antibacterial activity against Salmonella enterica subsp. enterica serovar Typhimurium after 16 to 18 hrs by broth microdilution method; type: functional
[30] = Ratio of MIC for Escherichia coli BW25113 to MIC for Escherichia coli JW5503; type: functional
[31] = system: Escherichia coli; assay: Antibacterial activity against Escherichia coli BAS849 after 16 to 18 hrs by broth microdilution method; type: functional
[32] = system: Streptococcus pyogenes; assay: Antibacterial activity against Streptococcus pyogenes after 16 to 18 hrs by broth microdilution method; type: functional
[33] = system: Escherichia coli; assay: Antibacterial activity against Escherichia coli JW5503 after 16 to 18 hrs by broth microdilution method; type: functional
[34] = system: Escherichia coli; assay: Antibacterial activity against ciprofloxacin-resistant Escherichia coli JW5503 harboring GyrA Asp87Tyr mutant after 16 to 18 hrs by broth microdilution method; type: functional
[35] = system: Escherichia coli; assay: Antibacterial activity against Escherichia coli HB101 after 16 to 18 hrs by broth microdilution method; type: functional
[36] = system: Escherichia coli; assay: Antibacterial activity against Escherichia coli JW5503 simultaneously overexpressing gyrA/gyrB in presence of IPTG induction after 16 hrs by broth microdilution method; type: functional, organism-based
[37] = system: Bacillus cereus; assay: Antibacterial activity against Bacillus cereus after 16 to 18 hrs by broth microdilution method; type: functional
[38] = system: Escherichia coli; assay: Antibacterial activity against Escherichia coli JW5503 overexpressing gyrA/gyrB in presence of IPTG induction after 16 hrs by broth microdilution method; type: functional; details: JW5503, 16 h
[39] = system: Escherichia coli; assay: Antibacterial activity against gyramide-resistant Escherichia coli JW5503 harboring GyrA Ser97Pro mutant after 16 to 18 hrs by broth microdilution method; type: functional
[40] = system: Escherichia coli; assay: Ratio of MIC for gyramide-resistant Escherichia coli JW5503 harboring GyrA His45Tyr mutant to MIC for Escherichia coli JW5503; type: functional
[41] = system: Escherichia coli; assay: Ratio of MIC for ciprofloxacin-resistant Escherichia coli JW5503 harboring GyrA Ser83Leu mutant to MIC for Escherichia coli JW5503; type: functional
[42] = system: Shigella flexneri; assay: Antibacterial activity against Shigella flexneri after 16 to 18 hrs by broth microdilution method; type: functional
[43] = system: Escherichia coli; assay: Antibacterial activity against Escherichia coli JW5503 overexpressing gyrB in presence of IPTG induction after 16 hrs by broth microdilution method; type: functional; details: JW5503, 16 h
[44] = system: Klebsiella pneumoniae; assay: Antibacterial activity against Klebsiella pneumoniae after 16 to 18 hrs by broth microdilution method; type: functional
[45] = system: Escherichia coli; assay: Antibacterial activity against Escherichia coli UPEC after 16 to 18 hrs by broth microdilution method; type: functional
[46] = system: Escherichia coli; assay: Ratio of MIC for novobiocin-resistant Escherichia coli CC5 harboring GyrB Arg136His mutant to MIC for Escherichia coli HB101; type: functional
[47] = system: Escherichia coli; assay: Antibacterial activity against Escherichia coli BW25113 after 16 to 18 hrs by broth microdilution method; type: functional
[48] = molecular target: DNA gyrase (Escherichia coli, UniProt P0AES4+P0AES6); assay: Inhibition of Escherichia coli DNA gyrase assessed as inhibition of pUC19 supercoiling after 30 mins by agarose gel electrophoresis; type: protein-complex assay
[49] = system: Bacillus subtilis; assay: Antibacterial activity against Bacillus subtilis after 16 to 18 hrs by broth microdilution method; type: functional
[50] = system: Escherichia coli; assay: Ratio of MIC for novobiocin-resistant Escherichia coli CC7 harboring GyrB Arg136Ser mutant to MIC for Escherichia coli HB101; type: functional
[51] = system: Escherichia coli; assay: Ratio of MIC for ciprofloxacin-resistant Escherichia coli JW5503 harboring GyrA Asp87Tyr mutant to MIC for Escherichia coli JW5503; type: functional
[52] = system: Escherichia coli; assay: Ratio of MIC for novobiocin-resistant Escherichia coli LE316 harboring GyrB Arg136Val mutant to MIC for Escherichia coli HB101; type: functional
[53] = system: Escherichia coli; assay: Antibacterial activity against gyramide-resistant Escherichia coli JW5503 harboring GyrA His45Tyr mutant after 16 to 18 hrs by broth microdilution method; type: functional
[54] = system: Escherichia coli; assay: Antibacterial activity against Escherichia coli MC4100 after 16 to 18 hrs by broth microdilution method; type: functional
[55] = system: Escherichia coli; assay: Ratio of MIC for gyramide-resistant Escherichia coli JW5503 harboring GyrA Ser97Pro mutant to MIC for Escherichia coli JW5503; type: functional

## N#Cc1cccc(S(=O)(=O)N[C@@H]2CCN(Cc3ccc(-c4ccccc4)cc3)C2)c1
[1]
  MIC: > 16 µg/mL
[2]
  Ratio: 2 - 4
[3]
  Ratio: 10 - 100
[4]
  MIC: 0.2 µg/mL (≈ 0.479 µM)
[5]
  MIC: 10 µg/mL (≈ 24 µM)
[6]
  MIC: > 16 µg/mL
[7]
  MIC: 0.2 µg/mL (≈ 0.479 µM)
[8]
  MIC: > 16 µg/mL
[9]
  MIC: 0.1 µg/mL
[10]
  MIC: > 16 µg/mL
[11]
  MIC: > 16 µg/mL
[12]
  MIC: > 16 µg/mL
[13]
  Ratio: 2 - 4
[14]
  MIC: 0.1 µg/mL
[15]
  MIC: 10 µg/mL (≈ 24 µM)
[16]
  Ratio: 10 - 100
[17]
  MIC: > 16 µg/mL
[18]
  MIC: 0.4 µg/mL (≈ 0.958 µM)
[19]
  MIC: 16 µg/mL (≈ 38.3 µM)
[20]
  MIC: > 16 µg/mL
[21]
  MIC: 0.2 µg/mL (≈ 0.479 µM)
[22]
  MIC: > 16 µg/mL
[23]
  MIC: 10 µg/mL (≈ 24 µM)
[24]
  MIC: > 16 µg/mL
[25]
  Ratio: 10 - 100
[26]
  MIC: 0.2 µg/mL (≈ 0.479 µM)
[27]
  Ratio: 8
[28]
  inhibition: inactive
[29]
  MIC: 2 µg/mL (≈ 4.79 µM)
[30]
  Ratio: 160
[31]
  MIC: 1 µg/mL (≈ 2.4 µM)
[32]
  MIC: > 16 µg/mL
[33]
  MIC: 0.1 µg/mL (≈ 0.24 µM)
[34]
  MIC: 0.4 µg/mL (≈ 0.958 µM)
[35]
  MIC: > 16 µg/mL
[36]
  Activity: Active
[37]
  MIC: > 16 µg/mL
[38]
  MIC: 0.1 µg/mL
[39]
  MIC: > 10 µg/mL
[40]
  Ratio: 10 - 100
[41]
  Ratio: 2 - 4
[42]
  MIC: 8 µg/mL (≈ 19.2 µM)
[43]
  MIC: 0.1 µg/mL
[44]
  MIC: > 16 µg/mL
[45]
  MIC: 16 µg/mL (≈ 38.3 µM)
[46]
  Ratio: 2 - 4
[47]
  MIC: 16 µg/mL (≈ 38.3 µM)
[48]
  IC50: 52 nM
[49]
  MIC: > 16 µg/mL
[50]
  Ratio: 2 - 4
[51]
  Ratio: 2 - 4
[52]
  Ratio: 2 - 4
[53]
  MIC: 10 µg/mL (≈ 24 µM)
[54]
  MIC: 8 µg/mL (≈ 19.2 µM)
[55]
  Ratio: 10 - 100
